One data set is described as follows: Aqueous solubility. The class given is physicochemical. As to the method: Solubility: Because compounds are stored in DMSO, it is necessary to determine aqueous solubility of initial hit compounds and their analogs. High solubility in aqueous solution is necessary for high GI absorption, bioavailability, and for chemical formulation. Compounds should be soluble in aqueous solution at >10 μg/ml. Solubility of >50 μg/ml is preferred.

The nature of data set [1]: In vitro ADME: metabolic potential / microsomal stability, species not stated. The method, then: (§1) Metabolism (microsome, S9 fraction, CYP450): Liver Cytochrome P450 (CYP450) enzymes are the major route for xenobiotic metabolism and microsomal and hepatocyte stability is the best predictor of pharmacokinetic half-life. Cross-species comparisons of metabolism in liver microsomes can predict potential issues with liver toxicity in humans. Selected active compounds are tested in liver microsomes from efficacy species (mouse), toxicity species (rat, dog, monkey), and humans for metabolic stability.
CMB-003319 was evaluated for its in vitro ADME properties.
Compounds were sent for in vitro ADME tests to evaluate their ADME properties.

Data set [2] deals with proteasome activity (Ubi-YFP degradation). Description: Proteasome activity assay (Ubi-YFP in HeLa cells). The class given is cell-based. The note with it: 25 μM compound, 1 μM MG132. As to the method: FIG. 7. Arylsulfanyl pyrazolones prevent MG132-induced accumulation of Ubi-YFP. HeLa cells were co-transfected with Ubi-YFP and CMV-CFP plasmids, treated with 1 μM MG132 and 25 μM arylsulfanyl pyrazolones and Ubi-YFP fluorescence intensity normalized to CFP.
Since the CMB-003299 cytotoxicity of SOD1 protein aggregates may involve inhibition of proteasome activity, compounds that stimulate proteasome activity could reverse or prevent mutant SOD1-induced cytotoxicity. Thus, active compounds were tested for the ability to stimulate proteasome activity using a cell line expressing ubiquitin-conjugated YFP [Ubi-YFP 74]. In these cells, increased proteasome activity causes increased degradation of Ubi-YFP and decreased YFP fluorescence. Conversely, compounds that inhibit proteasome activity increase accumulation of Ubi-YFP and enhanced YFP fluorescence. As expected, MG132 augments YFP fluorescence intensity ˜3-fold compared to untreated controls (FIG. 7). […] Protein aggregates are present in the absence of MG132 and aggregation is suppressed following treatment with a provided compound.
HeLa cells (20,000/chamber) were plated on 8 chambered Tissue-tek coverglass pretreated with 1 mg/ml poly-D-lysine and allowed to adhere for 18 h at 37° C./5% CO2. Cells were transfected with 0.2 μg each CMV-CFP and Ubi-YFP plasmids using Lipofectamine 2000 according to manufacturer's instructions. Cells were allowed to express CFP and Ubi-YFP for 18 h followed by a 6 h incubation with test compounds (25 μM). MG132 (1 μM) was added for a final 18 h incubation and Ubi-YFP degradation assessed by fluorescence microscopy. Fluorescence intensity of CFP and YFP was calculated on a cell-by-cell basis from captured images using AxioVision software (Zeiss). YFP fluorescence was normalized to CFP fluorescence.

The next data set deals with Caco-2. Description: In vitro Caco-2 permeability. The data set is classed as in vitro ADME. The method, then:
(§2) General Permeability: High membrane permeability is required for effective GI absorption and optimal bioavailability. Passive permeability is typically assessed in the PAMPA artificial membrane assay (Kansy et al., J. Med. Chem. 2002, 45(8), 1712-1722). Cell-based permeability determinations using the Caco-2 cell assay are more resource intensive but more predictive of active transport or efflux in vivo (Artursson et al., Adv. Drug. Deliv. Rev. 2001, 46(1-3), 27-43). Caco-2 assays are performed as needed during SAR development.
(Caco-2 cells form a polarised layer with tight junctions and transporters.)

Data set [3] can be described thus: In vitro plasma stability. The class given is in vitro ADME. The method, then:
Plasma stability: Plasma stability of active compounds is assessed in efficacy species (mouse), toxicity species (rat, dog, monkey), and human cells.

Data set [4] is classed as in vitro ADME. The note with it: male, Sprague Dawley, 15 μM, pH 7.4; for % Mean ± S.E. / RR Mean (Response Ratio): rat.
The subject of a further data set is G93A SOD1 ALS mice. Description: Survival in the G93A SOD1 ALS mouse model. The class given is in vivo. The note with it: 20 mg/kg. The method, then:
The compounds identified were evaluated in the transgenic G93A ALS mouse model. ADME data was used to determine optimal route of administration. LD50 and maximally-tolerated dose were determined, and that information was used to design and execute pharmacokinetic studies to assess brain bioavailability, and to guide choice of dosing regimen (i.e., frequency, dose, route). […] This may include further dose optimization, phenotype assessment, comparison with compounds of established efficacy, and analysis of brain tissue in treated animals.
In the present study, G93A SOD1 mice and littermate controls were bred from existing colonies at the Bedford VA Medical Hospital. The male G93A SOD1 mice were mated with B6SJL females and the offspring were genotyped by PCR using tail DNA. […] Mice were housed in micro-isolator cages in complete barrier facilities. A 12 hour light-dark cycle was maintained and animals were given free access to food and water. Control and transgenic mice of the same age (±2 days) and from the same ‘f’ generation were selected from multiple litters to form experimental cohorts (n=20 per group). […]
Data sets are generated and analyzed for each clinical and neuropathological measure. […] Dose-dependent effects are assessed in each treatment group using multiple two-sided ANOVA tests. […]

Data set [5] concerns PC12 cells that express mutant G93A SOD1. Description: Mutant SOD1-induced cytotoxicity protection assay. The method, then:
This idea was tested by examining the sensitivity of PC12 cells to SOD1 aggregates in the presence and absence of proteasome inhibitor MG132. PC12 cells expressing no SOD1, wild type SOD1, G85R SOD1 or G93A SOD1 were grown with or without MG132 (FIG. 1).
PC12 cells expressing G93A SOD1 were treated with 100 nM MG132 with or without co-treatment with geldanamycin or radicicol.

A further data set in a line: in vivo. The conditions noted are these: mouse.
Data set [6] in a line: Brain uptake procedure, LCMS of brain and plasma. The data set is classed as in vivo, mice (Tg6799 colony with B6/SJL background). The note with it: 1 mg/kg i.p.; for concentration at 10 min / Kp at 10 min: Tg6799 colony with B6/SJL background, mouse, intraperitoneal, 1 mg/kg; for Kp at 10 min: brain/plasma. As to the method: CMB-087229 Mice Brain and Plasma Data CMB-087229 (1 mg/kg) was administrated to mice (Tg6799 colony with B6/SJL background) by intraperitoneal injection in a 60% PBS and 40% dimethyl sulfoxide solution. At 10 minutes after compound administration the mice were sacrificed. Blood was harvested and plasma was transferred to flash freeze in liquid nitrogen after centrifugation. Mice were perfused. The brain was homogenized in 100% acetonitrile. CMB-003319 (0.5 μg, 1.73 nmol) was added as an internal standard. The homogenates were centrifuged at 12000×g for 12 min, and the supernatant was evaporated. The residue was reconstituted in 33.3% acetonitrile. Solid phase extraction followed by LCMS (API 300 liquid chromatography-tandem mass spectrometry system, Applied Biosystems, Foster City, Calif.; Agilent 1100 series HPLC system, Agilent Technologies, Wilmington, Del.) was used to quantify the amount of CMB-087229 in mouse brain. Solid-phase extraction cartridges (Sep-Pak C18, Water Associates, Milford, Mass.) were washed with 1 mL acetonitrile and equilibrated with 1 mL of water. The reconstituted supernatant was then loaded, washed with 1 mL×2 of 33.3% acetonitrile. CMB-087229 was then dried and submitted for LCMS.

Data set [7] can be described thus: Metabolic half-life in rats. The data set is classed as in vitro ADME. The conditions noted are these: rat. The text has this:
(§3) CMB-087229 was sent for an evaluation of its in vitro ADME properties.

Data set [8] in a line: In vitro microsomal stability, human. The data set is classed as in vitro ADME. The note with it: human, human liver microsomes; read-out: human metabolic potential T1/2. As to the method: as §1, §3
(§4) Two possible amines, secondary and tertiary AAP analogues, were initially screened in the protection assay (FIG. 30) and for in vitro microsomal stability (Table 1) and Caco-2 permeability (Table 2). […] The solubilities of 2 and 3 were good in aqueous media (≧150 μM), and no precipitation occurred at the highest concentration. The in vitro plasma half-life for both compounds was >60 min.
In general terms: Liver microsomes are a subcellular fraction often used to study metabolism.

The nature of data set [9]: In vitro Caco-2 permeability. The class given is in vitro ADME. The note with it: human, Caco-2. As to the method:
as §2

Data set [10] in a line: In vitro microsomal stability, mouse. The data set is classed as in vitro ADME. The conditions noted are these: mouse, mouse liver microsomes; read-out: mouse metabolic potential T1/2. The method, then: as §1, §3, §4
Data set [11] is described as follows: NADPH dependent rat liver microsomal metabolite study by HPLC. The class given is in vitro ADME. The note with it: NADPH dependent rat liver microsomes, up to 60 minutes. The method, then: TC-II-68 and TC-II-70 were proposed as possible metabolites and prepared before the study.
After 0, 5, 10, 20, 40, and 60 minutes incubation with rat liver microsome, 50 μL acetonitrile was added to quench reactions. The reaction mixture was vortexed and incubated in an ice bath for 2 h. The samples were centrifuged to remove the precipitated protein. The supernatant solutions were loaded directly for HPLC analysis.

Results on three compounds are retold here after patent US9145424B2, “Treatment of amyotrophic lateral sclerosis” (Northwestern University, priority 2008, dated 2015).

Converted amounts (≈) assume the structure as drawn. “And” between values parts separate entries of the source, which are not always exact repeats. Identical values can stand only once. “Also recorded” adds a separate entry of the source. Like-named read-outs stand apart in the source and are kept apart here.

On to `Cc1cc(SCc2cc(=O)[nH][nH]2)c(Cl)cc1Cl` [CMB-003319], for which the “aqueous-solubility, in words” value in the data set “Aqueous solubility” is recorded as “medium”. Besides, in data set [1], the metabolic potential entry is reported as “medium”. For the same compound, the “effect on MG132-induced Ubi-YFP fluorescence” value in data set [2] is recorded as “strongly inhibit”. Also, the “CaCO-2 permeability, in words” value in the data set on Caco-2 is “medium”. In data set [3], the “plasma stability, in words” value was “poor”. Further, the “rat liver microsomal stability, in words” value in data set [4] was “poor microsomal stability”.
`O=c1cc(COc2cc(Cl)cc(Cl)c2)[nH][nH]1` [CMB-087229]: in the data set with G93A SOD1 ALS mice, the extension in survival is reported as 13.4%. Also, in data set [5], the “potency (ED50)” value is given as 74 nM. The Kp in “in vivo” is ~0.55. In the data set “in vivo” (concentration in the brain), this compound showed a concentration at 4 h of 194 µM. This compound displayed a concentration at 3 h in the data set “in vivo” (plasma concentration) of 342 µM. Moreover, the concentration at 6 h in “in vivo” (plasma concentration) was found to be 347 µM. The concentration at 12 h in “in vivo” (plasma concentration) amounted to 248 µM. The compound also came in with a concentration at 24 h in “in vivo” (plasma concentration) of 1.68 µM. For the same compound, the “Brain Extract concentration” value in data set [6] (10 minutes, single mice) is 0.159 µg/mL and 0.187 µg/mL. In addition, in data set [6] (10 minutes, single mice), the Brain concentration was 0.366 µg/g and 0.467 µg/g. Besides, the “Brain/plasma Ratio July” value in [6] (10 minutes, single mice) is 4.10 and 3.13. Further, in data set [6] (10 minutes, single mice), the “Plasma concentration July” value is 89.2 ng/mL and 149 ng/mL. Also, the concentration at 10 min in [6] (brain extract, 10 minutes, single mice, read-out: Brain Extract concentration) is 121 ng/mL; in data set [6] (brain, 10 min July, read-out: Brain concentration (Mean ± S.E.)), 363 ± 105 ng/g; in data set [6] (brain, 10 minutes, single mice, read-out: Brain concentration), 257 ng/g; in [6] (plasma, 10 min July, read-out: Plasma concentration (Mean ± S.E.)), 110 ± 34.2 ng/mL; in data set [6] (plasma, 10 minutes, single mice, read-out: Plasma concentration July), 90.4 ng/mL. In addition, the Kp at 10 min came out at 3.36 ± 0.66 in [6] (10 min July, read-out: Brain/Plasma Ratio (Mean ± S.E.)) and 2.84 in [6] (10 minutes, single mice, read-out: Brain/plasma Ratio July). The compound further displayed an aqueous solubility in the data set “Aqueous solubility” of 250 µM (≈ 64.8 µg/mL). In addition, the half-life was ~2 h in [7]; 1.55 h in data set [8]; 0.283 h in [3] (plasma, read-out: plasma stability T1/2); 0.6 h in data set [10]. Besides, the Papp (A→B) in [9] worked out at 37 ×10⁻⁶ cm/s.
Take `O=c1cc(CSc2ccc(Cl)cc2)[nH][nH]1` [TC-I-165, 5-((4-Chlorophenylthio)methyl)-1H-pyrazol-3(2H)-one]: in [11], the microsomal metabolites result is “only TC-II-68 was a direct metabolite; also recorded: the only direct metabolite from TC-I-165 was TC-II-68; also recorded: TC-II-70 is not a metabolite”. In [4] (0 min), the “% Mean ± S.E.” value is reported as 100 ± 26.4% and the “RR Mean (Response Ratio)” value was determined as 2.529. Further, in [4] (20 min), the “% Mean ± S.E.” value worked out at 12.4 ± 0.89% and the “RR Mean (Response Ratio)” value was 0.314.

For orientation: aqueous solubility means the dissolved amount per volume that the medium holds.
